From PubChem BioAssay (NCI)
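Interpolation was linear, between the two tested concentrations surrounding the appropriate level; five concentrations were tested over 48 hours in 96-well plates. TGI denotes the concentration required for complete inhibition of growth.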 Where a SMILES comes first, the peptide text is derived from it. The star is where a group is joined. Boc = CC(C)(C)OC(=O)*; OtBu = CC(C)(C)O*

What was measured:
Experiment in all cases: NCI tumour cell line growth inhibition, 48 h
HOP-62 NSCLC = system: HOP-62 NSCLC
BT-549 breast = system: BT-549 breast
HCC-2998 colon = system: HCC-2998 colon
KM12 colon = system: KM12 colon
A549 NSCLC = system: A549 NSCLC
ACHN renal = system: ACHN renal
M14 melanoma = system: M14 melanoma
MCF7 breast = system: MCF7 breast
CAKI-1 renal = system: CAKI-1 renal
OVCAR-4 ovarian = system: OVCAR-4 ovarian
RXF 393 renal = system: RXF 393 renal

Compound	TGI (HOP-62 NSCLC)	TGI (BT-549 breast)	TGI (HCC-2998 colon)	TGI (KM12 colon)	TGI (A549 NSCLC)	TGI (ACHN renal)	TGI (M14 melanoma)	TGI (MCF7 breast)	TGI (CAKI-1 renal)	TGI (OVCAR-4 ovarian)	TGI (RXF 393 renal)
CSc1ccc(/C=C2\N=C(c3ccccc3)N(NC(=O)c3c(Cl)c(Cl)c(Cl)c(Cl)c3-c3nc4ccccc4[nH]3)C2=O)cc1	> 100 µM	> 100 µM	39.3 µM	65.6 µM	> 100 µM	> 100 µM	> 100 µM	> 100 µM	85.3 µM	–	–
CC(C)(C)OC(=O)CC(NC(=O)OC(C)(C)C)C(=O)NC(Cc1ccccc1)C(N)=O (centres undefined) (Boc-Asp(OtBu)-Phe-NH2; configuration not given here)	> 100 µM	> 100 µM	–	> 100 µM	> 100 µM	> 100 µM	> 100 µM	> 100 µM	> 100 µM	> 100 µM	> 100 µM
O=C(O)OC12CCCCCC1C(=O)C1CCCCC12 (centres undefined)	> 100 µM	–	–	> 100 µM	> 100 µM	> 100 µM	> 100 µM	–	–	> 100 µM	> 100 µM
C/C(=C\COP(=O)(O)CP(=O)(O)O)CC/C=C(\C)CNc1ccccc1	> 100 µM	> 100 µM	–	> 100 µM	> 100 µM	> 100 µM	> 100 µM	> 100 µM	> 100 µM	–	> 100 µM
CSC(SC)=C1Sc2cccc(Cl)c2S1	> 100 µM	–	44.9 µM	> 100 µM	> 100 µM	> 100 µM	> 100 µM	–	> 100 µM	> 100 µM	88.1 µM
COc1ccc(CCN2C(=O)C(=O)C(C(=O)c3ccccc3)C2c2ccccc2)cc1OC (centres undefined)	> 100 µM	> 100 µM	> 100 µM	> 100 µM	> 100 µM	> 100 µM	> 100 µM	> 100 µM	> 100 µM	–	> 100 µM
Nc1cc2c(C3OC(CO)C(O)C3O)[nH]nc2c(=S)[nH]1 (centres undefined)	> 100 µM	–	> 100 µM	> 100 µM	> 100 µM	> 100 µM	> 100 µM	–	> 100 µM	> 100 µM	> 100 µM
COc1ccc(C2OC2C(=O)C23CC4CC(CC(C4)C2)C3)cc1 (centres undefined)	> 100 µM	–	> 100 µM	> 100 µM	> 100 µM	> 100 µM	> 100 µM	> 100 µM	–	> 100 µM	> 100 µM
CCCCc1c2c([n+]([O-])c3c1CCCC3)CCCC2	> 100 µM	–	> 100 µM	> 100 µM	> 100 µM	43.1 µM	–	–	–	–	–
O=c1cc(O)c1=O	> 100 µM	> 100 µM	> 100 µM	> 100 µM	> 100 µM	> 100 µM	> 100 µM	> 100 µM	> 100 µM	> 100 µM	–
Cc1[nH]n(C(=O)Cc2ccccc2)c(=O)c1/C=C1\C(=O)C=Cc2ccccc21	> 100 µM	–	> 100 µM	> 100 µM	> 100 µM	> 100 µM	–	–	> 100 µM	> 100 µM	–
